According to paper PMC7555825, “New Insights of the Zn(II)-Induced P2 × 4R Positive Allosteric Modulation: Role of Head Receptor Domain SS2/SS3, E160 and D170” (International Journal of Molecular Sciences, 2020):
Numbering of substitutions follows the chain as printed.

Columns and labels:
[1] = biological target: T1, rP2 × 4R C132A/C159A mutant (Rattus norvegicus, UniProt P51577, C132A/C159A); experiment: ATP concentration–response curves, voltage clamp, C132A/C159A double mutant; assay type: cell-based; conditions: for EC50: ATP EC50, C132A/C159A
T1 construct: host or cells: Xenopus laevis oocytes
T1 sequence (P51577 1-388 C132A/C159A): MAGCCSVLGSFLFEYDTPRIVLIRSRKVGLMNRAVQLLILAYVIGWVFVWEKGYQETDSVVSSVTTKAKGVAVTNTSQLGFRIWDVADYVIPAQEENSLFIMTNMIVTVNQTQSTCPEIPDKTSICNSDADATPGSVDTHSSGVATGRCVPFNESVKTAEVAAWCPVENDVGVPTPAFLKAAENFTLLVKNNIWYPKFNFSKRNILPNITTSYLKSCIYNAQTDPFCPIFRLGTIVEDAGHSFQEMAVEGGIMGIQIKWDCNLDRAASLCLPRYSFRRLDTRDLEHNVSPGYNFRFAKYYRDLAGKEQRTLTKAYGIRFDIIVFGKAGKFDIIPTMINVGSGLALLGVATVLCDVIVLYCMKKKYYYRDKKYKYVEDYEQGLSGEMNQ

[2] = biological target: T2, rP2 × 4R C126A mutant (Rattus norvegicus, UniProt P51577, C126A); experiment: ATP concentration–response curves, voltage clamp, C126A mutant
T2 sequence (P51577 1-388 C126A): T1 sequence (P51577 1-388 C132A/C159A) with C126A, A132C, A159C

[3] = biological target: T3, rP2 × 4R C149A mutant (Rattus norvegicus, UniProt P51577, C149A); experiment: ATP concentration–response curves, voltage clamp, C149A mutant; assay type: cell-based; conditions: for EC50: ATP EC50, C149A
T3 construct: host or cells: Xenopus laevis oocytes
T3 sequence (P51577 1-388 C149A): T1 sequence (P51577 1-388 C132A/C159A) with A132C, C149A, A159C

[4] = biological target: T4, rP2 × 4R C132S/C159S mutant (Rattus norvegicus, UniProt P51577, C132S/C159S); experiment: ATP concentration–response curves, voltage clamp, C132S/C159S double mutant; assay type: cell-based
T4 construct: host or cells: Xenopus laevis oocytes
T4 sequence (P51577 1-388 C132S/C159S): T1 sequence (P51577 1-388 C132A/C159A) with A132S, A159S

[5] = biological target: T5, rP2 × 4R C132T/C159T mutant (Rattus norvegicus, UniProt P51577, C132T/C159T); experiment: ATP concentration–response curves, voltage clamp, C132T/C159T double mutant; assay type: cell-based
T5 construct: expressed in transfected cells; host or cells: Xenopus laevis oocytes
T5 sequence (P51577 1-388 C132T/C159T): T1 sequence (P51577 1-388 C132A/C159A) with A132T, A159T

[6] = system: D170A mutant; design: method as in Kasuya et al., (2016) 38; conditions: ref Kasuya et al., (2016) 38; cited from earlier work

## Nc1ncnc2c1ncn2[C@@H]1O[C@H](COP(=O)(O)OP(=O)(O)OP(=O)(O)O)[C@@H](O)[C@H]1O [ATP, adenosine triphosphate]
[1]; +10 µM Zn(II)
  EC50: 4.5 ± 1.6 µM
[1]; control
  EC50: 77.1 ± 24.1 µM
[2]; ATP EC50, C126A, +10 µM Zn(II)
  EC50: 9.3 ± 3 µM
[2]; C126A, +10 µM Zn(II)
  Imax: 11.7 ± 4.8 µA
[3]; +10 µM Zn(II)
  EC50: 22.5 ± 7.5 µM
[3]; control
  EC50: 39 ± 16.7 µM
[3]; C149A, +10 µM Zn(II)
  Imax: 10.7 ± 3.5 µA
[4]; control
  EC50: 20.5 ± 5 µM
[5]; control
  EC50: 27.4 ± 13.6 µM
  Imax: 3.2 ± 0.7 µA

## [Cl-].[Cl-].[Zn+2] [Zn(II), zinc chloride (ZnCl2)]
[1]; C132A/C159A, 10 µM Zn(II)
  fold reduction in ATP EC50 by Zn(II): 17.1 fold
[6]
  fold potentiation of the 3 µM ATP-gated currents: 2 fold
[2]; C126A, 10 µM Zn(II)
  fold reduction in ATP EC50 by Zn(II): 4.1 fold
[3]; C149A, 10 µM Zn(II)
  fold ATP EC50 decrease by Zn(II): 1.73 fold
[4]; 10 µM Zn(II)
  fold reduction in ATP EC50 by Zn(II): 3.41 fold
[5]; 10 µM Zn(II)
  fold ATP EC50 reduction by Zn(II): 5.5 fold
